Reference: PMC4747340, “A new class of small molecule estrogen receptor-alpha antagonists that overcome anti-estrogen resistance” (Oncotarget, 2015)

How the values were obtained:
[1] = biological target: T1, estrogen receptor-alpha (ER) (Homo sapiens, UniProt P03372); test: constitutive ER activity, ERE-TK-Luc reporter, in anti-estrogen resistant LCC9 cells; type: cell-based; set-up: LCC9 cells in 24-well dishes were transfected overnight with the ERE-TK-Luc reporter plasmid; endogenous in cells; host or cells: LCC9; details: for IC50: LCC9, no E2, 24 hr, read-out: IC50 for inhibition of ER activity in LCC9
T1 sequence (P03372 1-595): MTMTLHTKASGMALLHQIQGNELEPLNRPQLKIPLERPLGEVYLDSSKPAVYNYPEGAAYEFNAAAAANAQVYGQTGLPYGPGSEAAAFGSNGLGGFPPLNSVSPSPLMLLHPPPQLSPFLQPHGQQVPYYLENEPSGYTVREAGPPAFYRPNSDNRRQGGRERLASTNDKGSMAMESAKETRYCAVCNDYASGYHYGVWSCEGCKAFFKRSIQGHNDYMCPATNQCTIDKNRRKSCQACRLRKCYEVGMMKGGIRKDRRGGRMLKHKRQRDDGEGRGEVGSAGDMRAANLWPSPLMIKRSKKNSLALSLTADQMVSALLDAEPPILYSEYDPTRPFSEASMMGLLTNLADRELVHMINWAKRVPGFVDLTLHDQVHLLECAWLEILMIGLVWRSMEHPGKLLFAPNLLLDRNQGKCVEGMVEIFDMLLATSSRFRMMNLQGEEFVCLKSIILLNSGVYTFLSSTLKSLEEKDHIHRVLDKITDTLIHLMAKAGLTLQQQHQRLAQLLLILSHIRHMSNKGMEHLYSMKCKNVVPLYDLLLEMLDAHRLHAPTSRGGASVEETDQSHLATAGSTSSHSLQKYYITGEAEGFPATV
Protocol: For MCF-7, luciferase activity is expressed as a fold-change relative to the no E2 control. For LCC9, luciferase activity is expressed relative to the control without the reporter present. Values plotted are means ± SEMs of four replicate wells. The data shown in each panel are representative of three independent experiments.
The cells were then treated with the indicated concentrations of the six bioactive compounds or vehicle only (DMSO) for 24-hr and assayed for luciferase activity. Luciferase activity is expressed as a percentage of the DMSO control. Values are means ± SEMs of four replicate wells. The data shown in each panel are representative of three independent experiments.
The cells were then harvested for luciferase assays. Luciferase activity was expressed as a fold-change relative to the no reporter control. Values plotted are means ± SEMs of four replicate wells. The data shown are representative of three independent experiments.
Subconfluent cells in 24-well dishes were transfected overnight with 0.25 μg of each indicated vector plus the ERE-TK-Luc reporter in serum-free DMEM containing Lipofectamine2000 (Life Technologies, Washington, DC). Total transfected DNA was kept constant by addition of control vector. The cells were washed, incubated in phenol red-free DMEM containing 5% charcoal-stripped serum (obtained from the Tissue Culture Shared Resource) (0.2 ml/well) ± E2 (10 nM) ± the indicated compound for 24-hr, and harvested for luciferase assays. For each assay condition was tested in quadrupicate. To monitor the transfection efficiency, cultures were co-transfected with plasmid pRSV-β-gal (Promega, Madison, WI) to visualize transfected cells by X-gal staining.

[2] = MTT assay of cell viability; type: cell-based; details: human, MCF-7 cells, 24-hr exposure, relative to untreated control
Protocol: Figure 3 Cytotoxicity and specificity of compounds A., B. Subconfluent proliferating cells were incubated with the indicated compound at the indicated concentration for 24-hr and then harvested for MTT dye reduction assays. Cell viability values (relative to untreated control cells) are means ± SEMs of 10 replicate wells. C., D. Subconfuent proliferating T47D cells were transfected overnight with the MMTV-Luc reporter (0.25 μg per well in 24-well dishes), washed, and allowed to recover for several hr in fresh medium. The cells were then treated with a synthetic progestin (R5020, 10 nM) plus the indicated compound at the indicated concentration for 24 hr and then harvested for luciferase assays. Luciferase activity is expressed relative to the MMTV-Luc control (no agents added) (panel A) or as a percentage of the +R5020 positive control (panel B). Values are means ± SEMs of four replicate wells. The data shown in each panel are representative of three independent experiments.
Assays were performed as described before. After the indicated treatment, cells in 96-well dishes were solubilized and assayed for MTT dye reduction. Cell viability was expressed as the amount of dye reduction relative to untreated control cells. and calculated as means ± SEMs for 10 replicate wells.

LCC9 cells = test: cell proliferation assay (cell counts days 1, 3, 5), LCC9; type: cell-based, human; details: for LCC9 cell proliferation, compound combined with Tam: compound plus Tam (1 μM) compared with compound alone
Protocol: (§1) Starting on day 1, cells were refed daily with fresh medium (DMEM plus 5% CSS) containing the indicated agent. In panel F, the cells were refed with medium also containing ER-siRNA or control-siRNA (100 nM) at the indicated times. Wells were counted on days 1, 3, and 5 to determine cell numbers. Values are means ± SEMs of triplicate wells. The data shown in each panel are representative of three independent experiments.
(§2) Assays were performed using as the growth medium phenol red-free DMEM containing 5% charcoal-stripped serum. Briefly, proliferating cells were harvested using trypsin, counted, inoculated into 12-well dishes at 1 × 10^4 cells per well on day 0 and allowed to attach and recover for 24 hr. The cells were then treated with the indicated agents for up to five days, with daily refeeding with fresh medium and agents. Triplicate wells were counted by Coulter Counter on days 1, 3, and 5. For experiments using siRNAs, cells were treated with the indicated siRNA (100 nM) starting on day -2, and fresh siRNA was added on days 0, 2, and 4.

LCC2 cells = test: cell proliferation assay (cell counts days 1, 3, 5), LCC2; type: cell-based, human; details: DMEM + 5% charcoal-stripped serum
Protocol: as §1, §2

Row | Compound | effect on ER activity in LCC9 cells, single agent ([1]; LCC9, 24 hr, Tam 5 μM in b8) | IC50 [1] | ER activity in LCC9 cells, compound combined with Tam ([1]; compound plus Tam compared with compound alone, 24 hr) | viability at 24 h, 1 µM [2] | viability at 24 h, 20 µM [2] | effect on LCC9 cell growth, single agent (LCC9 cells; DMEM + 5% charcoal-stripped serum, up to 5 days, 4631-P/1 at 1 μM) | LCC9 cell proliferation, compound combined with Tam (LCC9 cells) | proliferation of Tamoxifen-resistant LCC2 cells (LCC2 cells) | LCC9 cell proliferation in ER-siRNA-treated cells (LCC9 cells; ER-siRNA 100 nM)
1 | O=C(c1cc(Br)ccc1O)c1cc(Br)ccc1O [4631-P/1] | inhibited ER activity in LCC9 cells | ≤ 1000 nM | significantly lower ER activity than 4631-P/1 alone | 100% | > 90% | inhibited LCC9 cell growth | greater inhibition of cell proliferation than 4631-P/1 alone | inhibited ER-dependent cell proliferation | –
2 | O=C(CC(c1ccccc1)N1CCCCC1)c1ccccc1 (centres unmarked) [35446-L/1, 1,3-diphenyl-3-(piperidin-1-yl)propan-1-one] | – | ≤ 1000 nM | – | 100% | > 90% | – | greater inhibition of LCC9 proliferation than did 35466-L/1 alone | inhibited ER-dependent cell proliferation | little effect on cell proliferation
